We go through eleven molecules from ChEMBL document CHEMBL3826953, “Development of Autotaxin Inhibitors: An Overview of the Patent and Primary Literature” (J Med Chem, 2016).

Series [1] addresses Autotaxin (Rattus norvegicus, UniProt Q64610). As to the kind of experiment: Inhibition of ATX in rat plasma assessed as inhibition of LPA production after 2 hrs by LC-MS/MS analysis. The class given is cell-free.
In series [2] the target is T1, Autotaxin (Mus musculus, UniProt Q9R1E6). As to the kind of experiment: Inhibition of ATX in mouse plasma assessed as inhibition of LPA production after 2 hrs by LC-MS/MS analysis. The class given is cell-free.
Series [3] is described as follows: Half life in human. The class given is ADME, organism-based. Particulars: in vivo.
The target of series [4] is T1, Autotaxin. Kind of series: Inhibition of recombinant mouse ATX using lysophosphatidylcholine as substrate by choline release assay.
The target in series [5] is T2, Autotaxin (Homo sapiens, UniProt Q13822). Kind of series: Inhibition of recombinant human C-terminal His-tagged ATX expressed in HEK293E cells using lysophosphatidylcholine as substrate preincubated with enzyme followed by substrate addition measured after 1 hr by AmplexRed dye based fluorescence assay.
Series [6] has as its target T2, Autotaxin. Kind of series: Inhibition of recombinant ATX (unknown origin) expressed in baculovirus infected Hi5 cells using L-alpha-lysophosphatidylcholine as substrate preincubated for 30 mins followed by substrate addition measured after 90 mins by AmplexRed dye based fluorescence plate reader analysis. The settings on record: BTI-TN-5B1-4.
The target of series [7] is T2, Autotaxin. As to the kind of experiment: Inhibition of human recombinant ATX using FS3 as substrate incubated for 30 mins by fluorescence assay.
Series [8] in a line: Plasma concentration in Lewis rat air pouch model of inflammation at 100 mg/kg, po administered through gavage 1 hr before carrageenan injection measured after 3 hrs by LC-MS/MS analysis relative to control. The class given is ADME, organism-based.
Series [9] can be described thus: Effective half life in Lewis rat at 1 mg/kg, iv measured up to 24 hrs by LC-MS/MS analysis. The class given is ADME, organism-based. Particulars: in vivo, read-out: t1/2eff (converted).
Series [10] can be described thus: Oral bioavailability in Lewis rat at 1 to 100 mg/kg administered through gavage measured up to 24 hrs by LC-MS/MS analysis. Particulars: in vivo. The class given is ADME, organism-based.
Series [11] has as its system Rattus norvegicus. As to the kind of experiment: In vivo inhibition of ATX in Lewis rat air pouch model of inflammation assessed as inhibition of carrageenan-induced LPA production in pouch fluid at 100 mg/kg, po administered through gavage 1 hr before carrageenan injection measured after 3 hrs by LC-MS/MS analysis relative to control. The class given is functional.

A short description of series [12]: Plasma concentration in Lewis rat air pouch model of inflammation at 3 mg/kg, po administered through gavage 1 hr before carrageenan injection measured after 3 hrs by LC-MS/MS analysis relative to control. The class given is ADME, organism-based.
A short description of series [13]: Clearance in Lewis rat at 1 mg/kg, iv measured up to 24 hrs by LC-MS/MS analysis. The class given is ADME, organism-based. The settings on record: in vivo.
Series [14] has as its system Rattus norvegicus. Kind of series: In vivo inhibition of ATX in Lewis rat air pouch model of inflammation assessed as inhibition of carrageenan-induced LPA production in plasma at 100 mg/kg, po administered through gavage 1 hr before carrageenan injection measured after 3 hrs by LC-MS/MS analysis relative to control. The class given is functional.
For series [15], the target named is T2, Autotaxin. As to the kind of experiment: Inhibition of recombinant human ATX using CPF4 as substrate measured after 3 hrs by fluorescence assay.
Series [16] addresses T2, Autotaxin. Particulars: 10 uM.
Description: Inhibition of recombinant human ATX at 10 uM using lysophosphatidylcholine (14:0) as substrate measured after 2 hrs by AmplexRed dye based fluorescence assay relative to control
The target in series [17] is T2, Autotaxin. Kind of series: Inhibition of recombinant ATX in human MDA-MB-435 cells at 10 uM using FS3 as substrate fluorescence assay relative to control. The class given is cell-based.
Series [18] addresses T2, Autotaxin. Kind of series: Inhibition of recombinant ATX in human […] cells using lysophosphatidylcholine as substrate preincubated for 15 mins followed by substrate addition measured after 90 mins by choline release assay. The class given is cell-based.
The target in series [19] is T2, Autotaxin. Kind of series: Inhibition of human recombinant ATX using FS3 as substrate incubated for 2 hrs by fluorescence assay.
Series [20] has as its target T2, Autotaxin. Kind of series: Mixed-type inhibition of human recombinant ATX using FS3 as substrate assessed as enzyme-substrate-inhibitor complex incubated for 2 hrs by Michaelis-Menten equation analysis.
The target in series [21] is T2, Autotaxin. As to the kind of experiment: Mixed-type inhibition of human recombinant ATX using FS3 as substrate assessed as enzyme-inhibitor complex incubated for 2 hrs by Michaelis-Menten equation analysis.
In series [22] the target is T2, Autotaxin. As to the kind of experiment: Inhibition of recombinant human C-terminal V5/His6-tagged ATX expressed in HEK293 cells assessed as residual activity at 1 uM using oleoyl-lysophosphatidylcholine as substrate incubated for 16 hrs by choline release assay relative to control.
The target of series [23] is T2, Autotaxin. As to the kind of experiment: Inhibition of recombinant human C-terminal V5/His6-tagged ATX expressed in HEK293 cells assessed as residual activity at 100 uM using oleoyl-lysophosphatidylcholine as substrate incubated for 16 hrs by choline release assay relative to control.
Series [24] has as its target T2, Autotaxin. As to the kind of experiment: Inhibition of recombinant human C-terminal V5/His6-tagged ATX expressed in HEK293 cells assessed as choline release at 0.5 uM using oleoyl-lysophosphatidylcholine as substrate incubated for 18 hrs by non-linear regression analysis.
The target in series [25] is T2, Autotaxin. As to the kind of experiment: Inhibition of recombinant human C-terminal V5/His6-tagged ATX expressed in HEK293 cells assessed as choline release at 0.5 uM using oleoyl-lysophosphatidylcholine as substrate incubated for 18 hrs by linear regression analysis.
The target in series [26] is T2, Autotaxin. As to the kind of experiment: Inhibition of recombinant human C-terminal V5/His6-tagged ATX expressed in HEK293 cells assessed as residual activity at 10 uM using oleoyl-lysophosphatidylcholine as substrate incubated for 16 hrs by choline release assay relative to control.
Series [27] has as its target T2, Autotaxin. As to the kind of experiment: Inhibition of recombinant ATX in human Hep3B cells using lysophosphatidylcholine as substrate preincubated for 15 mins followed by substrate addition measured after 1.5 to 3 hrs by choline release assay. The class given is cell-based, Hep 3B2.

A value given as a limit tells only on which side of the number the result lay.

For `CCc1nc2c(C)cc(N3CCN(CC(=O)N4CC(O)C4)CC3)cn2c1N(C)c1nc(-c2ccc(F)cc2)c(C#N)s1` [ZIRITAXESTAT], the values for the IC50 in series [1], in series [2] and in [4] were no less than 500 nM, no less than 500 nM and 224 nM, respectively. Besides, the half-life in series [3] was 300 min.
Turning to `O=C(c1cc(-c2cnn[nH]2)ccn1)N1CCc2nc(NC3Cc4ccccc4C3)ncc2C1`, the 50% inhibitory concentration (IC50) – broadly, the point on the concentration scale where inhibition reaches its midpoint – in series [5] is less than 1.7 nM.
As for `O=C(OCc1cc(Cl)cc(Cl)c1)N1CCC(N2CCN(C(=O)c3ccc4[nH]c(=O)oc4c3)CC2)CC1`, the INH in [6] was less than 1 µM.
For the molecule `O=C(CCc1nc2ccccc2s1)N1CCc2ncnc(Cc3ccc(F)cc3)c2C1`, the IC50 in series [7] was 2.59 nM.
For `O=C(CCN1CCN(C(=O)OCc2cc(Cl)cc(Cl)c2)CC1)c1ccc2[nH]c(=O)oc2c1`, the concentration at 3 h amounted to 2680 nM in series [8] and 79 nM in series [12]. For the same molecule, the half-life in series [9] is 72 min. Besides, the bioavailability (commonly dose-corrected exposure relative to a reference, in per cent) in [10] was determined as 43%. For the same molecule, the inhibition in vivo at 100 mg/kg in series [11] and in [14] was no more than 95% each time. In addition, in series [13], the clearance (as a rule, the rate of elimination divided by the concentration) was 31 mL/min/kg.
For the molecule `O=C(Nc1cccc(F)c1)c1cc(S(=O)(=O)N2CCOCC2)c(Cl)cc1Cl`, in series [15], the concentration for half-maximal inhibition (IC50) was found to be 31.4 nM. Moreover, the inhibition (usually the change of the read-out against control, counted positive when it falls) in [16] stood at 41%.
In the case of `CCn1cc(C(=O)O)c(=O)c2cnc(N3CCN(C(=S)NCc4cc(Cl)cc(Cl)c4)CC3)nc21`, the inhibition in series [17] is 0%.
Turning to `Cc1c(Sc2cccc(C(=O)O)n2)c2ccc(Cl)cc2n1-c1cnn(C)c1`, in [18], the IC50 was less than 300 nM.
Regarding `CCCCCCCCCCCCCCc1ccc(CP(=O)(O)O)cc1`, the IC50 in series [19] is 170 nM. For the same molecule, the Ki (usually the dissociation constant of the complex between target and ligand, obtained from inhibition or displacement) in [20] was determined as 280 nM; in series [21] it was 270 nM.
Turning to `CCCCCCCCCCCCCCCC(=O)N[C@@H](Cc1ccc(OCc2ncc(C)c(OC)c2C)cc1)[C@@H](O)CP(=O)(O)O`, the values for the Activity in series [22], in series [23] and in series [26] were 27%, 6% and 13%, respectively. Moreover, the Ki in series [24] turned out to be 1300 nM; in series [25], 390 nM.
In the case of `N#C/C(=C\c1nn(Cc2ccc(F)cc2)c2cc(Cl)ccc12)c1ccc(C(=O)O)cc1`, the IC50 in series [27] was less than 500 nM.
